{"source": "patent US20050113458A1", "about": "“Use of 1-aminocyclohexane derivatives to modify deposition of fibrillogenic a-beta peptides in amyloidopathies” (Forest Laboratories, Inc., priority 2003, published 2005)", "key": {"[1]": {"experiment": "Dose-finding pilot study: steady-state plasma concentration of memantine", "type": "in vivo, male C57BL/6J mice", "settings": "male, C57BL/6J, mouse, mean±SEM, read-out: steady-state plasma level", "excerpt": "(§1) Transgenic mice expressing either human PS1 harboring the familial AD-linked A246E mutation or chimeric mouse/human APP695 harboring a human Aβ domain and mutations (K595N, M596L) linked to Swedish familial AD pedigrees (APPswe) (Borchelt et al., 1997) were back-crossed to C57BL/6J for 16 generations and then crossed together to generate double transgenic mice co-expressing both transgenes. In all tests, 8-month-old double-mutant male mice (APP/PS1; n=45) and their non-transgenic littermates (NT; n=36, ) were used. […] The therapeutic dose of memantine was defined as the dose producing a steady-state plasma drug level of ˜1 μM and was determined in 8-month-old male C57 BL/6J mice (background strain of the transgenic mice).\nDose-finding pilot study: A pilot study was undertaken to determine the therapeutic dose of memantine [i.e., the dose of memantine producing a steady-state plasma drug level of around 1 μM, which several preclinical and clinical studies have indicated is therapeutic (Kornhuber and Quack, 1995; Zajaczkowski et al., 1996)] to be used in subsequent experiments in transgenic mice. Memantine (Forest Research Institute, Jersey City, N.J.) was administered orally (via drinking water) to male C57BL/6J mice at the doses of 10 mg/kg/day (n=10), 30 mg/kg/day (n=10) and 100 mg/kg/day (n=10) for 4 weeks. The placebo group (n=10) had drinking water without memantine. Blood samples were taken from the femoral vein 4 weeks after the initiation of drug treatment to determine the steady-state plasma concentration of memantine. Plasma samples were analyzed at Merz Pharmaceuticals GmbH (Frankfurt am Main, Germany) using a gas chromatograph system coupled with a mass selective detector (Kornhuber and Quack., 1995)."}, "[2]": {"tested_on": "Aβ40", "experiment": "Aβ40 levels in conditioned media by sandwich ELISA", "type": "cell-based, human", "settings": "SK-N-SH cells; for levels of Aβ40 in conditioned media: 0.25-1.0 μg/ml (1-4 μM)", "method": "(§2) Cell culture and drug treatment. Human neuroblastoma (SK-N-SH, ATCC HTB-11, Biedler et al., Cancer Res. 1973, 33(11): 2643-52) cells were seeded at approximately 2×10^6 cells/well in a 6-well plate. Thereafter, drug concentrations of memantine were initiated at 0 μg/ml (control), 0.25 μg/ml (1 μM), 0.5 μg/ml (2 μM), and 1.0 μg/ml (4 μM) in MEM media supplemented with 1% FBS and 1× antibiotic. Treatment period was 12 days with a collection of conditioned media (CM) at 3 day intervals. Following collection, fresh memantine-media was added and the process repeated until harvest on day 12. The levels of both sAPP and Aβ40 were determined as described below.\nAnalysis of Aβ levels by ELISA. Quantitative solid phase sandwich ELISA (enzyme linked immunosorbent assay) was used to measure Aβ40 levels in the conditioned media samples. Specifically, an affinity purified anti-human Aβ (35-40) rabbit IgG was used as a capture antibody, and affinity purified HRP-conjugated anti-human Aβ (11-28) rabbit IgG Fab was used as a detection antibody (both reagents from IBL (Japan)). Since an antibody against Aβ (11-28) was used as a secondary conjugated antibody, human Aβ40 variants which cleaved at N-terminus sites were also detectable in the ELISA assay. TMB was used as a coloring agent (Chromogen). The measurement range was from 15.6 to ˜1,000 pg/ml (3.6 to ˜230.9 pmol/l).\n(§3) Data Analysis. Data were analyzed from 3-6 independent cell culture experiments. Statistical analysis (e.g., analysis of variance and post-hoc tests for multiple comparisons) was performed using the SPSS program (Statistical Products and Services Solutions, Chicago, Ill.) and included the mean and the standard error of the mean."}, "[3]": {"settings": "humans; Kornhuber and Quack 1995; cited from earlier work"}, "[4]": {"tested_on": "Fisher 344 rats", "settings": "30 mg/kg/day for 8 weeks, Barnes et al. 1996; cited from earlier work"}, "[5]": {"tested_on": "rat hippocampal cells", "settings": "Miguel-Hidalgo et al. 2002; cited from earlier work"}, "[6]": {"tested_on": "sAPP", "experiment": "sAPP levels in conditioned media by Western blotting (mAb22C11)", "type": "cell-based, human", "settings": "SK-N-SH cells; for levels of sAPP in conditioned media: 0.25-1.0 μg/ml (1-4 μM)", "method": "as §2\nAnalysis of sAPP levels by Western blotting. Levels of total sAPP in the CM samples were measured by denaturing polyacrylamide gel electrophoresis (SDS-PAGE) followed by the Western immunoblotting using mAb22C11 antibody. Samples were loaded on the gel at equal volume of conditioned media (30 μg protein/sample). The density of specific APP bands in the blot was quantified using the NIH Image software. Levels of APP were expressed as a percent of controls. Levels of the constitutively expressed β-actin protein were measured in parallel as an internal control.\nas §3"}, "[7]": {"tested_on": "human neuroblastoma cells SK-N-SH", "experiment": "Cellular toxicity, LDH assay", "type": "cell-based", "settings": "1-4 μM", "method": "as §2\nCell Toxicity and Viability Assays. Cell viability in control and memantine-treated samples was measured using MTT (the tetrazolium dye 3-[4,5-dimethylthiazol-2-yl]-2,5-diphenyltetrazolium bromide). Cellular toxicity was measured uding lactate dehydrogenase (LDH) (Sigma, St. Louis, Mo.) assay."}, "[8]": {"tested_on": "APP/PS1 and NT mice", "experiment": "Exploratory activity (TruScan automated activity monitor)", "type": "in vivo", "settings": "30 mg/kg/day in drinking water, 10-min recording", "excerpt": "as §1, with “mice). […]” for “mice).”\nExploratory activity: TruScan® (Coulbourn Instruments, CO, USA) automated activity monitor based on infrared photo detection was used for monitoring exploratory activity. […] Activity was measured for 10 min in two separate sessions separated by 48 h.\nStatistical analysis All statistical analyses were performed using SPSS for Windows software, version 11.5.1 (SPSS, Chicago, Ill.). The effects of genotype, treatment, training day, and their interaction with the behavioral parameters of exploratory activity and performance in the Morris water maze were evaluated by analysis of variance (ANOVA) for repeated measures. […]"}, "[9]": {"tested_on": "APP/PS1 and NT mice", "experiment": "Isolation-induced aggression test", "type": "in vivo", "settings": "30 mg/kg/day in drinking water"}, "[10]": {"tested_on": "APP/PS1 and NT mice", "experiment": "Morris water maze (spatial learning and memory)", "type": "in vivo", "settings": "30 mg/kg/day; for time spent in the target area, probe trial: sixth day, 60 s, mean±sem", "excerpt": "as §1\nMemantine treatment: Based on the pilot study, the dose of 30 mg/kg/day (see Results section for details) was chosen for the behavioral study and administered in drinking water for 3 weeks. Memantine was administered to 23 APP/PS1 mice and 19 NT mice. The placebo group (APP/PS1: n=22; NT: n=17) received drinking water without memantine. Behavioral testing started 2 weeks after treatment onset and continued for one week. After two weeks of treatment, mice were tested for exploratory activity, isolation-induced aggression, and performance in the Morris water maze.\nMorris water maze: The Morris water maze was used to measure spatial learning and memory. The apparatus was a black plastic pool with a diameter of 120 cm. A black escape platform (square, 14×14 cm) was located 1.0 cm below (hidden) the water surface. The temperature of the water was kept constant throughout the experiment (20±0.5° C.), and a 10-min recovery period was allowed between the training trials. First, the mice were pre-trained to find and climb onto the platform for two days by using an alley (1 m×14 cm×25 cm) leading to the platform located 1 cm below the water. The training consisted of 8 consecutive days of testing, with 5 trials per day. […] During the first 5 days of testing the mice were trained with a hidden platform. The platform location was kept constant and the starting position varied between four constant locations at the pool rim. Mice were placed in the water with their nose pointing towards the wall at one of the starting points in a random manner. On the sixth day, the platform was removed and the mice were allowed to swim for 60 s to determine their search bias. On testing days 7 and 8, a black curtain was hung around the swimming pool in order to conceal all extra-maze visual cues. […] Timing of the latency to find the submerged platform was started and ended by the experimenter. A computer connected to an image analyzer (HVS Image®, Hampton, UK) monitored the swim pattern. During the water maze training, we measured swimming speed and latency to find the platform. The wall-swimming tendency (thigmotaxis) was assessed by dividing the pool into 3 concentric zones of equal surface area and calculating the time spent in the outer zone. Search bias during the probe trial was measured by calculating the time the mice spent in the vicinity of where the platform was previously located. We defined this as a target area centered on the platform with a diameter of 30 cm. This target area comprised 6.25% of the total surface area, thus a random swim for 60 s in the pool would yield a dwell time of 3.75 s in the target area during the probe trial.\nStatistical analysis All statistical analyses were performed using SPSS for Windows software, version 11.5.1 (SPSS, Chicago, Ill.). The effects of genotype, treatment, training day, and their interaction with the behavioral parameters of exploratory activity and performance in the Morris water maze were evaluated by analysis of variance (ANOVA) for repeated measures. Attack latency from the isolation-aggression test was analyzed by two-way ANOVA with genotype and treatment as factors."}, "[11]": {"tested_on": "human neuroblastoma cells", "settings": "Lahiri et al. 1998; cited from earlier work"}}, "note": "Entries after “also recorded” stand apart in the source; their conditions may differ. Where two headings read alike, the source gives them in different places.", "data": [{"compound": "CC12CC3CC(C)(C1)CC(N)(C3)C2", "note": "[memantine, 1-amino-3,5-dimethyl adamantane]", "values": [{"measurement": "concentration at 4 weeks", "setting": "[1]; 10 mg/kg/day oral (drinking water)", "result": "490 ± 60", "unit": "nM"}, {"measurement": "concentration at 4 weeks", "setting": "[1]; 30 mg/kg/day oral (drinking water)", "result": "1140 ± 70", "unit": "nM"}, {"measurement": "concentration at 4 weeks", "setting": "[1]; 100 mg/kg/day oral (drinking water)", "result": "5540 ± 400", "unit": "nM"}, {"measurement": "levels of Aβ40 in conditioned media", "setting": "[2]; day 3", "result": "no significant changes"}, {"measurement": "levels of Aβ40 in conditioned media", "setting": "[2]; day 6, compared to negative control", "result": "significant decrease"}, {"measurement": "levels of Aβ40 in conditioned media", "setting": "[2]; day 9, compared to negative control", "result": "significant decrease"}, {"measurement": "Aβ40 levels in the conditioned media", "setting": "[2]; 1-4 μM for up to 12 days", "result": "a decrease in its levels"}, {"measurement": "therapeutically effective circulating concentration", "setting": "[3]", "result": "approximately 1 μM"}, {"measurement": "water maze learning", "setting": "[4]", "result": "improved water maze learning"}, {"measurement": "Aβ-induced apoptosis", "setting": "[5]", "result": "protected"}, {"measurement": "sAPP levels in the conditioned media", "setting": "[6]; 1 μM for 6-12 days", "result": "trend towards a decrease"}, {"measurement": "levels of sAPP in conditioned media", "setting": "[6]; day 3", "result": "no significant changes"}, {"measurement": "levels of sAPP in conditioned media", "setting": "[6]; day 6", "result": "dose-dependent decrease"}, {"measurement": "levels of sAPP in conditioned media", "setting": "[6]; day 9 and day 12", "result": "persisting or further decreasing"}, {"measurement": "sAPP levels in the conditioned media", "setting": "[6]; 2-4 μM for 6-12 days", "result": "significantly decreased"}, {"measurement": "cellular toxicity (LDH)", "setting": "[7]", "result": "not affected; also recorded: no toxicity"}, {"measurement": "horizontal activity (distance traveled)", "setting": "[8]", "result": "did not significantly affect"}, {"measurement": "vertical activity (rearing)", "setting": "[8]", "result": "did not significantly affect"}, {"measurement": "aggressive behavior (latency to attack the intruder)", "setting": "[9]; APP/PS1 mice", "result": "not significantly modified"}, {"measurement": "aggressive behavior", "setting": "[9]; NT mice", "result": "did not increase"}, {"measurement": "finding the visible platform", "setting": "[10]; APP/PS1 mice (FIG. 11B), days 7-8", "result": "did not show a significant improvement"}, {"measurement": "time spent in the outer zone of the pool (thigmotaxis)", "setting": "[10]; APP/PS1 mice, p=0.04", "result": "significantly reduced"}, {"measurement": "time spent in the target area, probe trial", "setting": "[10]; APP/PS1 mice", "result": "39.0 ± 2.0", "unit": "s"}, {"measurement": "escape latency, hidden platform", "setting": "[10]; APP/PS1 mice, vs placebo-treated APP/PS1 mice, p=0.02", "result": "reduced"}, {"measurement": "time spent in the outer zone of the pool (thigmotaxis)", "setting": "[10]; NT mice, p=0.004", "result": "significantly reduced"}, {"measurement": "escape latency (performance), hidden platform", "setting": "[10]; NT mice, p=0.09 (not significant)", "result": "trend towards improved performance"}, {"measurement": "time spent in the target area, probe trial", "setting": "[10]; NT mice", "result": "36.1 ± 2.6", "unit": "s"}, {"measurement": "performance level, hidden platform, compared with placebo-treated NT mice", "setting": "[10]; memantine-treated APP/PS1 mice, Tukey's post-hoc p=0.96", "result": "did not differ"}]}, {"compound": "Nc1c2c(nc3ccccc13)CCCC2", "note": "[tacrine]", "values": [{"measurement": "cellular damage or toxicity", "setting": "[11]", "result": "absence of any detectable cellular damage or toxicity"}, {"measurement": "release of Aβ40", "setting": "[11]", "result": "reduce"}, {"measurement": "release of Aβ42", "setting": "[11]", "result": "reduce"}, {"measurement": "release of sAPPα", "setting": "[11]", "result": "reduce"}, {"measurement": "release of total Aβ", "setting": "[11]", "result": "reduce"}]}]}
